Assay results as given in patent US20240209022A1, “NOVEL PEPTIDE HAVING ANTI-INFLAMMATORY AND TISSUE REGENERATIVE ACTIONS” (KOREA RESEARCH INSTITUTE OF BIOSCIENCE AND BIOTECHNOLOGY, priority 2020, published 2024).

Legend:
[1] = test system: MIA-induced degenerative arthritis model; assay: MIA-induced degenerative arthritis model; format: in vivo, C57BL/6J mice; conditions: vs PBS buffer group; for diameter of the knee joint: day 1 after MIA injection, i.p.
Description: As a degenerative arthritis model, 9-week-old specific pathogen free (SPF) male C57BL/6J mice were anesthetized, the area around the right knee joint was cleanly shaved, and 10 μL of MIA solution (monosodium iodoacetate 0.5 mg in 10 μL 0.9% sterile saline) was injected into the knee joint cavity to induce arthritis. From 3 days before MIA (monosodium iodoacetate) solution injection, Amuc_1409 or PEP001, PEP002, PEP003, PEP004, PEP005, PEP006, PEP007, PEP008, PEP009, PEP010, PEP011, PEP012, or PEP013 was dissolved in PBS buffer at a concentration of 6.7 μM and then injected into the mouse peritoneal cavity at 150 μL per animal once a day at the same time. On day 3 (0 days) after administration of Amuc_1409 or PEP001 to PEP013, an additional intraperitoneal injection was given 1 hour before MIA injection, the drug was intraperitoneally injected once a day at the same time after MIA injection, and the experiment was terminated on the 30th day after MIA injection. In the control group, the same volume of PBS buffer was injected intraperitoneally. After MIA injection, the diameter of the knee joint was measured using a caliper for 7 days at 2-day intervals (0, 1, 3, 5, and 7 days) to evaluate swelling caused by inflammatory changes of the joint. […] At this time, the weight bearing on the limb was lower as arthritis was more severe. The weight-bearing weight (g) of each of both paws was measured, and in this experiment, the value was expressed as the ratio (%) of the right hind limb with arthritis to the total hind limb. Weight bearing ratio (%)=weight-bearing weight of right hind limb with arthritis (g)/weight-bearing weight of both hind limbs (g)×100 After termination of the experiment, the test animals were sacrificed, then the knee joint tissue of the mouse was fixed with 10% neutral buffered formalin, and the bone was decalcified with a 0.5 M EDTA solution. Next, the joint tissue was embedded in paraffin to prepare a 5 μm joint section, and Safranin O staining was performed to histopathologically analyze the degree of damage to the cartilage tissue. At this time, the degree of damage to the cartilage tissue was evaluated by examining the degree of safranin O staining of the sections and scored according to OARSI (Osteoarthritis Research Society International grade) guidelines. The scoring criteria according to the OARSI guidelines are as follows (Table 1). [table]

[2] = test system: collagen induced arthritis (CIA) model; assay: Collagen induced arthritis (CIA) rheumatoid arthritis model; format: in vivo, DBA/1J mice; conditions: vs PBS buffer group; for thickness of the ankle joint: at the end of the experiment
[3] = test system: animal model of metabolic disease accompanied by obesity/diabetes and chronic inflammation; assay: High-fat diet obesity/diabetic metabolic disease model; format: in vivo, C57BL/6J mice; conditions: for blood glucose in insulin resistance experiment (ITT): after insulin administration, time as stated in the value; for blood glucose in insulin resistance experiment (ITT) / AUC value of the insulin resistance experiment / body weight / LDL-C level in blood / TC (total cholesterol) level in blood / abdominal fat: vs PBS buffer group; for fasting blood glucose: after fasting for 16 hours at the end of the test; for body weight: oral, 3 weeks on high-fat diet
Description: An animal model of metabolic disease accompanied by obesity/diabetes and chronic inflammation was induced by feeding a high-fat diet.
The experiment in the groups administered with Amuc_1409 or PEP001 to PEP005 was performed using 8-week-old SPF male C57BL/6J mice, and the metabolic disease accompanied by obesity/diabetes and chronic inflammation was induced by ad libitum feeding of a high-fat diet for 45 weeks or 8 weeks. Specifically, mice fed a high-fat diet for 45 weeks were fed a high-fat diet for an additional 3 weeks, and Amuc_1409 was dissolved in PBS buffer at a concentration of 2.4 μM and then orally administered to the mice by 150 μL per animal at the same time once a day until the end of the experiment, or mice fed a high-fat diet for 8 weeks were fed a high-fat diet for an additional 3 weeks, and PEP001, PEP002, PEP003, PEP004, or PEP005 was dissolved in PBS buffer at a concentration of 2.4 μM and then orally administered to the mice by 150 μL per animal at the same time once a day until the end of the experiment. To the control group, PBS buffer was orally administered in the same manner.
For the experiment in the groups administered with PEP006 to PEP013, 8-week-old male C57BL/6J mice were used, and the metabolic disease accompanied by obesity/diabetes and chronic inflammation was induced by ad libitum feeding of a high-fat diet for 32, 50, or 53 weeks. Mice fed a high-fat diet for 32 weeks were fed a high-fat diet for an additional 3 weeks, and a novel tetrapeptide PEP006 was dissolved in PBS buffer at a concentration of 0.15 μg/150 μL (PEP006) and then orally administered to the mice by 150 μL per animal at the same time until the end of the test, mice fed a high-fat diet for 50 weeks were fed a high-fat diet for an additional 3 weeks, and a novel tetrapeptide PEP007, PEP008, PEP009, or PEP010 was dissolved in PBS buffer at a concentration of 0.2 μg/150 μL (PEP007 to PEP013) and then orally administered to the mice by 150 μL per animal at the same time until the end of the test, and mice fed a high-fat diet for 53 weeks were fed a high-fat diet for an additional 3 weeks, and a novel […] PEP011, PEP012, or PEP013 was dissolved in PBS buffer at a concentration of 0.2 μg/150 μL (PEP007 to PEP013) and then orally administered to the mice by 150 μL per animal at the same time until the end of the test. To the control group, PBS buffer was orally administered in the same manner.
For all animals, general symptoms were observed immediately before administration at the start of administration, and the body weight was measured until the end of the test after group separation.
Insulin (Humalog, 1 unit/kg) was intraperitoneally injected into mice fasted for 4 hours at 2 weeks after the start of test substance administration (2 weeks in groups administered with Amuc_1409 and PEP001 to PEP005 and 3 weeks in groups administered with PEP006 to PEP013), and then blood glucose at 30 minutes, 60 minutes, 90 minutes, and 120 minutes was measured from a small amount of blood obtained through a wound at the tip of the tail using ACCU-CHECK (Roche), thereby performing an insulin tolerance test (ITT).
At the end of the test, fasting blood glucose was measured from a small amount of blood obtained through a wound at the tip of the tail of the mouse fasted for 16 hours using ACCU-CHECK, and blood was collected from the orbital venous plexus using a heparin-treated capillary tube. The collected blood was immediately centrifuged at 10,000 rpm (4° C.) for 10 minutes to separate plasma, and then subjected to analysis of total cholesterol (TC) and low-density lipoprotein cholesterol (LDL-C), which are blood abnormal lipid indicators, using an automated blood biochemical analyzer.

[4] = 2 weeks and 4 weeks after MIA injection
[5] = days 3, 5, and 7 after MIA injection

| Substance | weight bearing ratio [1, 4] | thickness of the ankle joint [2] | arthritis index (clinical score by date) [2] | swelling of the hind paws by macrophotography [2] | blood glucose in insulin resistance experiment (ITT) [3] | AUC value of the insulin resistance experiment [3] | diameter of the knee joint [1] | thickness of the knee joint [1, 5] | fasting blood glucose [3] | body weight [3] | LDL-C level in blood [3] | TC (total cholesterol) level in blood [3] | abdominal fat [3] | maintenance of the decreased blood glucose in insulin resistance experiment ([3]; until 120 minutes after insulin) | weight bearing ratio ([1]; 2 weeks after MIA injection) | weight bearing ratio ([1]; 4 weeks after MIA injection) | thickness of the knee joint ([1]; day 3 after MIA injection) | thickness of the knee joint ([1]; day 5 after MIA injection) | thickness of the knee joint ([1]; day 7 after MIA injection) |
| --- | --- | --- | --- | --- | --- | --- | --- | --- | --- | --- | --- | --- | --- | --- | --- | --- | --- | --- | --- |
| AGS [PEP012] | significantly improved | significantly decreased | significantly decreased from day 32 after the first CII injection to the experiment end day | relieved overall | decreased close to a significant level from 30 minutes to 120 minutes after insulin administration | decreased close to a significant level | – | – | – | – | – | – | – | – | – | – | – | – | – |
| AVSSI (PEP002) | significantly increased | significantly decreased | significantly decreased from day 26 after the first CII injection to the experiment end day | reduced overall | decreased at 30 minutes after insulin administration | decreased | significantly decreased | significantly decreased | decreased | decreased from the initial body weight | significantly decreased | decreased | decreased | – | – | – | – | – | – |
| KGAY (PEP003) | significantly increased | significantly decreased | significantly decreased from day 26 after the first CII injection to the experiment end day | reduced overall | decreased at 30 minutes after insulin administration | decreased | significantly decreased | significantly decreased | decreased | significantly decreased | significantly decreased | significantly decreased | decreased | significantly maintained until 120 minutes | – | – | – | – | – |
| AIS [PEP013] | tended to be improved | tended to decrease | tended to decrease | relieved overall | decreased close to a significant level from 30 minutes to 120 minutes after insulin administration | decreased close to a significant level | – | – | – | – | – | – | – | – | – | – | – | – | – |
| SGAY (PEP009) | – | significantly decreased | significantly decreased from day 30 after the first CII injection to the experiment end day | remarkably improved | decreased to a significant level from 30 minutes to 120 minutes after insulin administration | decreased close to a significant level | tended to decrease | – | – | – | – | – | – | – | tended to increase close to a significant level | significantly increased | significantly decreased | tended to decrease | significantly decreased |
| IGAY (PEP008) | – | significantly decreased | significantly decreased from day 30 to day 32 after the first CII | remarkably improved | decreased to a significant level from 30 minutes to 120 minutes after insulin administration | significantly decreased | significantly decreased | – | – | – | – | – | – | – | significantly increased | significantly increased | significantly decreased | significantly decreased | significantly decreased |
| AQS [PEP011] | significantly improved | significantly decreased | significantly decreased from day 30 after the first CII injection to the experiment end day | relieved overall | decreased close to a significant level from 30 minutes to 120 minutes after insulin administration | decreased close to a significant level | – | – | – | – | – | – | – | – | – | – | – | – | – |
